Marks after values point to notes of the source that are not given here.
What was measured:
[1] = tested on: vitiligo guinea pig model caused by hydroquinone depigmentation; experiment: Vitiligo guinea pig model caused by hydroquinone depigmentation: counts of epidermal MC and melanin-granule-containing basal cells; format: in vivo; details: guinea pig skin after hydroquinone decolorization, drug once a day for 30 days, n = 10, x ± s; for Epidermal melanocyte count: average number of MCs in each 100 epidermal basal cells; for Basal cells containing melanin granules count: average number per 100 epidermal basal cells
Protocol: (§1) 10 in each group, Half male and female. Except for the blank control group, the other groups were smeared with 5% hydroquinone in the hair removal area for decolorization, 0.5 mL each time, twice a day, and the animals in the blank control group were smeared with an equal amount of normal saline every day. […] After modeling, the drug was administered in the above manner, once a day for 30 days.
After the observation, the mice were sacrificed, and the skin tissue on the back about 3 cm×3 cm was cut for histopathological examination.
The excised mouse skin tissue was fixed in 10% formalin for 1 hour, washed with running water for 3-4 min, and placed into a phosphate buffer solution (pH 7.4) containing 0.1% dihydroxyphenylalanine, and let stand at 37° C. for 1 hour. Then it was replaced with fresh Dopa reagent and left at 37° C. for 12 hours, rinsed with running water, and fixed with Bouin's solution continuously for 24 h. After the specimens were taken out, it was rinsed with running water for 4 hours, dehydrated, cleared in xylene, embedded in paraffin, deparaffinized to water, and stained with hematoxylin-eosin for contrast. Dehydrated and routinely mounted. After Dopa-oxidase staining, brownish-black staining was MC positive.
The excised mouse skin tissue was fixed in 10% formalin, dehydrated, cleared with xylene, embedded in paraffin, sectioned, deparaffinized to water, washed with distilled water several times, then stained with Lillie reagent, soaked with ferric chloride and potassium ferricyanide mixed solution for 15-20 minutes, then differentiated with 1% acetic acid aqueous solution for several minutes, washed with distilled water several times, then quickly dehydrated with 95% ethanol and absolute ethanol, cleared in xylene, and sealed with neutral gum. If melanin was dark green after Lillie reagent staining, it was positive.

tyrosinase = experiment: Tyrosinase intensity in skin tissue of vitiligo guinea pig model (immunohistochemistry, two-level scoring); format: in vivo; details: n = 10; for Color (units): score in brackets for staining colour; for Number of positive cells (units): score in brackets for tyrosinase-positive cells; for Total number (units): sum of positive-cell and colour scores; for Color: tyrosinase staining colour; for Number of positive cells: tyrosinase-positive cells
Protocol: as §1
The excised mouse skin tissue was fixed in 10% formalin dehydrated, cleared in xylene, embedded in paraffin, sectioned, deparaffinized to water, then 50 μL of peroxidase blocking agent (3% H2O2) was added to each section for 10 min to block endogenous peroxidase activity. The sections were immersed in 0.01 mol·L-1PBS buffer and microwaved for 10 min, added with 50 μL mouse anti-human tyrosinase monoclonal antibody, left at 37° C. for 60 min, then added with 50 μL of Elivision reagent, left at 37° C. for 30 min. The sections were then placed in freshly prepared DAB-H2O2 chromogenic solution for color development, rinsed with distilled water, stained with hematoxylin for contrast for 1 min, and sealed with neutral gum. The tyrosinase-positive product was located in the cytoplasm of the cell, shown as yellow or brownish-yellow granules or clumps in the cells under the microscope. The two-level scoring method was used to determine the results. If the number of positive cells was less than 5%, the score was 0; 5%˜25% is 1 point; 2 points for 25%˜50%; 3 points for 50%˜75%; >75% is 4 points. When classified according to staining intensity: 1 point for light yellow; 2 points for yellow or dark yellow; 3 points for brown or brownish yellow. If the sum of the two was less than 2, it was negative (−); 2-3 points as positive (+); 4-5 points as moderately positive (2+); 6-7 points as strongly positive (3+).

[2] = tested on: androgenetic alopecia (SA) rat model; experiment: Androgenetic alopecia (SA) rat model induced by testosterone propionate; format: in vivo, Wistar rats; details: for Skin hair follicles and sebaceous glands: number of rats graded ++ / Skin hair follicles and sebaceous glands: number of rats graded ± / Skin hair follicles and sebaceous glands: number of rats graded + / Skin hair follicles and sebaceous glands: number of rats graded − / Skin hair follicles and sebaceous glands: number of rats graded +++: 10 rats, after 60 days; for Skin hair follicles and sebaceous glands: number of rats graded ++: few follicles with cystic degeneration, sebaceous glands mild hyperplasia and hypertrophy; for Skin hair follicles and sebaceous glands: number of rats graded ±: no hyperplasia in the dermis, limited lesions of hair follicles and sebaceous glands, no subcutaneous inflammation; for Skin hair follicles and sebaceous glands: number of rats graded +: no obvious hyperplasia in dermis, obviously cystic follicles, no inflammation; for Skin hair follicles and sebaceous glands: number of rats graded −: normal skin dermal tissue cells, subcutaneous hair follicles and sebaceous glands; for Skin hair follicles and sebaceous glands: number of rats graded +++: segmental hyperplasia, degenerated follicles, hyperplasia of sebaceous glands, mild inflammatory hyperplasia; for 15 d hair length / 30 d hair length / 45 d hair length / 60 d hair length: rats; for 15 d hair length: 15 days after administration; for 30 d hair length: 30 days after administration; for 45 d hair length: 45 days after administration; for 60 d hair length: 60 days after administration
Protocol: SPF grade Wistar rats were selected and randomly divided into compound group 1 (skin applied with 5% R-IMPP solution), compound group 2 (skin applied with 5% PF 06446846 solution), and compound group 3 (skin applied with 5% SBC-115076 solution), compound group 4 (skin applied with 5% SBC-110736 solution), monoclonal antibody group 1 (subcutaneous injection of PCSK9 monoclonal antibody ab84041, 5 mg/kg·d), monoclonal antibody group 2 (subcutaneous injection of Evolocumab, 5 mg/kg·d), monoclonal antibody group 3 (subcutaneous injection of Alirocumab, 5 mg/kg·d), PCSK9 RNAi inhibitor group-1 (skin applied with 5% PCSK9 small interfering RNA-1 solution), PCSK9 RNAi inhibitor group-2 (skin applied with 5% PCSK9 small interfering RNA-2 solution), PCSK9 RNAi inhibitor group-3 (skin applied with 5% PCSK9 small interfering RNA-3 solution), and polypeptide group (subcutaneous injection of Abcam company ab32727, 3 mg/kg·d), positive control group (skin smeared with 5% minoxidil tincture), negative control group (smeared with 75% ethanol), model control group (smeared with 75% ethanol), 10 rats in each group, half male and half female.
Before the experiment, each rat selected an area of 4 cm×5 cm on the back to remove the hair as the observation area. Except for the negative control group, the rats were subcutaneously injected with testosterone propionate injection [[…]] at the back of the neck, once a day for 60 consecutive days to establish the SA model. […] At the same time, the rats in the corresponding drug group were smeared or subcutaneously injected on the skin of the observation area of the rats in the drug group, smeared 1 ml/(per time), twice a day, with an interval of 8 hours, and administered by subcutaneous injection, once a day. The negative control group and the model control group were smeared with excipient (75% ethanol solution), 1 mL one rat per time, twice a day, for 60 consecutive days.
10 hairs were extracted from the observation area on the back of each rat every 15 days after administration, and the hair length was measured with a vernier caliper. After 60 days of administration, the skin of the experimental observation area was taken for routine tissue dehydration, paraffin embedding, HE staining, and light microscopy to observe the histopathological changes of the rat skin hair follicles and sebaceous glands. Semi-quantitative analysis was carried out in each group. The grading standards are as follows: normal skin dermal tissue cells, subcutaneous hair follicles, and sebaceous glands were marked as “one”; no hyperplasia in the dermis, limited lesions of hair follicles and sebaceous glands, and no subcutaneous inflammation, marked as “±”; no obvious hyperplasia found in the dermis, obviously cystic follicles, no obvious hyperplasia found in the sebaceous glands, and no inflammation is recorded as “+”; segmental hyperplasia of skin and dermis was not obvious, a small number of hair follicles had cystic degeneration, and sebaceous glands had mild hyperplasia and hypertrophy. No obvious inflammation under the skin was recorded as “++”; the skin and dermis tissue cells had segmental hyperplasia of different degrees, some follicles degenerated, the size of the hair follicles was uneven, and there were no cells in the periphery. There was hyperplasia of sebaceous glands, and there were few nuclei in the hyperplasia glands. Individual rats had mild inflammatory hyperplasia under the skin, which was marked as “+++”.

| Compound | Epidermal melanocyte count [1] | Basal cells containing melanin granules count [1] | Color (units) (tyrosinase) | Number of positive cells (units) (tyrosinase) | Total number (units) (tyrosinase) | Color (tyrosinase) | Number of positive cells (tyrosinase) [%] | Skin hair follicles and sebaceous glands: number of rats graded ++ [2] | Skin hair follicles and sebaceous glands: number of rats graded ± [2] | Skin hair follicles and sebaceous glands: number of rats graded + [2] | Skin hair follicles and sebaceous glands: number of rats graded − [2] | Skin hair follicles and sebaceous glands: number of rats graded +++ [2] | 15 d hair length [2] | 30 d hair length [2] | 45 d hair length [2] | 60 d hair length [2] |
| --- | --- | --- | --- | --- | --- | --- | --- | --- | --- | --- | --- | --- | --- | --- | --- | --- |
| COc1ccc(CCC(=O)N(c2nccc3ccccc23)[C@@H]2CCCNC2)cc1 [Compound group 1, R-IMPP] | 33.6 ± 2.9 | 36.5 ± 3.8 | 2 | 3 | 5 | Brownish-yellow | 30 | 3 | 5 | 2 | 0 | 0 | 8.9* mm | 9.9* mm | 14.7* mm | 18.2* mm |
| O=C(c1ccc(-n2nnc3cccnc32)cc1)N(c1ncccc1Cl)[C@@H]1CCCNC1 [Compound group 2, PF 06446846] | 39.3 ± 3.2 | 38.8 ± 3.9 | 3 | 4 | 7 | Brownish-yellow | 40 | 1 | 5 | 2 | 2 | 0 | 9.2* mm | 10.1* mm | 15.2* mm | 18.9* mm |
| Cc1cc(C(=O)C2=C(O)C(=O)N(CCCN3CCOCC3)C2c2ccncc2)ccc1OCc1ccccc1 (stereo not shown) [Compound group 3, SBC-115076] | 36.1 ± 2.8 | 36.9 ± 3.6 | 3 | 3 | 6 | Brownish-yellow | 30 | 3 | 4 | 2 | 1 | 0 | 8.3* mm | 8.8* mm | 14.5* mm | 17.6* mm |
| CC(=O)Nc1ccc(C(=O)N2CCN(c3ccc(C)cc3)CC2c2ccccc2)cc1 (stereo not shown) [Compound group 4, SBC-110736] | 34.6 ± 2.6 | 36.8 ± 3.7 | 3 | 3 | 6 | Brownish-yellow | 30 | 2 | 4 | 3 | 1 | 0 | 8.1* mm | 8.6* mm | 14.3* mm | 17.3* mm |
| ALN-PCS [RNA interference group 3] | 33.8 ± 2.7 | 35.3 ± 3.1 | 2 | 3 | 5 | Yellow | 30 | 2 | 3 | 4 | 1 | 0 | 8.2* mm | 8.9* mm | 14.2* mm | 16.7* mm |
| Alirocumab [Monoclonal antibody group 3] | 43.5 ± 3.6 | 39.6 ± 3.7 | 4 | 3 | 7 | Brownish-yellow | 30 | 1 | 4 | 2 | 3 | 0 | 9.5* mm | 10.5* mm | 15.5* mm | 19.2* mm |
| Inclisran [RNA interference group 2] | 32.6 ± 2.8 | 36.1 ± 3.2 | 2 | 3 | 5 | Yellow | 30 | 1 | 4 | 4 | 1 | 0 | 8.3* mm | 9.1* mm | 14.5* mm | 16.9* mm |

From patent publication US20230346773A1, “USE OF PCSK9 INHIBITOR IN PREPARATION OF PRODUCT FOR TREATING MULTIPLE DISEASES” (priority 2020, published 2023)
